# Source: patent US9334256B2, “Agents and methods for treating ischemic and other diseases” (NoNO INC., priority 2011, dated 2016)
# pIC50: −log10 of the molar value.
# Columns and labels:
# TRPM7 [1] = biological target: T1, TRPM7 (Mus musculus, UniProt Q923J1); test: PI uptake cell death assay in TRPM7-expressing HEK-293 cells (type of assay from Example 1); assay type: cell-based, murine
# T1 construct: expressed in transfected cells; host or cells: HEK-293 tSA (HEK-293T) cells, transient transfection with Lipofectamine 2000
# T1 sequence (Q923J1 whole entry): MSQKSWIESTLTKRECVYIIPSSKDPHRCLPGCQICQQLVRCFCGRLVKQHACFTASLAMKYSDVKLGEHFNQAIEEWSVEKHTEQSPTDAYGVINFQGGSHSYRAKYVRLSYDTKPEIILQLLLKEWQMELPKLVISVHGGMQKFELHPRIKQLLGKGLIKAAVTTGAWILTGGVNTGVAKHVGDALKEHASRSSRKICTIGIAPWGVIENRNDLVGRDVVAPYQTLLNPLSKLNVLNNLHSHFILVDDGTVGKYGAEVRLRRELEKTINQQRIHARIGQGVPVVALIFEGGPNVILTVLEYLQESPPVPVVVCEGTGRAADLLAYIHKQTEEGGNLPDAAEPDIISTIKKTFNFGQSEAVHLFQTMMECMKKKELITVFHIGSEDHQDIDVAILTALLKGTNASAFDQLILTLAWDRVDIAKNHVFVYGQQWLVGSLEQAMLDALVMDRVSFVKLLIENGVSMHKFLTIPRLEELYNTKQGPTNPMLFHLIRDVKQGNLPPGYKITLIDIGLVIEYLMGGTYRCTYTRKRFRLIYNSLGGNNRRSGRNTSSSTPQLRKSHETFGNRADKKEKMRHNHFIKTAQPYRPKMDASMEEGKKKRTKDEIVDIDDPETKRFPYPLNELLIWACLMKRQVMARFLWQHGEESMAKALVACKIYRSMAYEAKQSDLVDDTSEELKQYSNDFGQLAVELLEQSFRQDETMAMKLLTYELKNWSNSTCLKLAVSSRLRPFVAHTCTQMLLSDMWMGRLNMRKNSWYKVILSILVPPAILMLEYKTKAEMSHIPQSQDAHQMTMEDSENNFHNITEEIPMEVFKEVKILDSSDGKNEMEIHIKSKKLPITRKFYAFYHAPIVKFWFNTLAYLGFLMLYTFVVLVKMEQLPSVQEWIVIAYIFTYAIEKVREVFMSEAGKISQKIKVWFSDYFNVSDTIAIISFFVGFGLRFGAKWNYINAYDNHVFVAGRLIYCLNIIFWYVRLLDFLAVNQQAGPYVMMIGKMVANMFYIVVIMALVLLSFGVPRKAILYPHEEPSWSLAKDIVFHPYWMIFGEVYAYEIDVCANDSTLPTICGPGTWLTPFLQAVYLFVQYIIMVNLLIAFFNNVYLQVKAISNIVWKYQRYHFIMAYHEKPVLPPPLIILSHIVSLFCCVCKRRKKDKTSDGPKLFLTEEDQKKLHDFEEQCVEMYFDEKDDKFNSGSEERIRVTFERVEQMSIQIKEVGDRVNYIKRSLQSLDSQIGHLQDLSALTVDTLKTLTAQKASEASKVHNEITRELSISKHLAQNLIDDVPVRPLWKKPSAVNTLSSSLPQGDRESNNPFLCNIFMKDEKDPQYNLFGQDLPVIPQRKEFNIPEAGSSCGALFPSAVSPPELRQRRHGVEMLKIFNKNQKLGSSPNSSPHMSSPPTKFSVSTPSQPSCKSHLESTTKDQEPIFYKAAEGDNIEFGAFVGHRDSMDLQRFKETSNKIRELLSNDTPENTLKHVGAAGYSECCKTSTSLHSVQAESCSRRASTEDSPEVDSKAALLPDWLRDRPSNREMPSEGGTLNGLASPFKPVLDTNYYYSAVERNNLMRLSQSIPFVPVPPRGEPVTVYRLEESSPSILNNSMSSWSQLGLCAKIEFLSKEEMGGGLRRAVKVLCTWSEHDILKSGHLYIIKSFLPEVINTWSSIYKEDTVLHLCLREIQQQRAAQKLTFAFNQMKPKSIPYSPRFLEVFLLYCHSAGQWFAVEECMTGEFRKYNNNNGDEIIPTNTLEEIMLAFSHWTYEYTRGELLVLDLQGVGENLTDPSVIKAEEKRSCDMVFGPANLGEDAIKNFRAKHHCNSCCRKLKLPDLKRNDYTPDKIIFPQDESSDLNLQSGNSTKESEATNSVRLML
# Text: The TRPM7 channel provides a pathway for mono- and divalent cations into the cell, and is unique in that it contains a functional C-terminal α-kinase domain. […] The induction of chemical anoxia in host cells such as recombinant HEK293 cells can be used to activate TRPM7. This activation is detectable with the use measurements of cellular calcium accumulation. This is achievable with the use of a fluorescent calcium indicator. Alternatively, this activation can also be measured using radiolabelled Ca2+ (^45Ca^2+) as described previously by Sattler et al. (Sattler et al., 1998) and Aarts et al. (Aarts et al., 2003).
# Hoechst 33342 was purchased as a 10 mg/mL solution in water (Molecular Probes Inc., Eugene, Oreg.). Propidium iodide (PI) was purchased as a powder and prepared by dissolving in PBS at 1 mg/mL. PI solutions were stored at 4° C. until use. Hoechst and PI were added directly to cell culture to 5 μg/mL and 10 μg/mL respectively. Cells were incubated at room temperature or at 37° C. for 10 minutes to allow for adequate uptake, and fluorescence observed using a NIKON Eclipse TE2000 inverted microscope and TE-FM Epi-Fluorescence attachment (Nikon Canada).
# Untransfected cells or cells transfected with the TRPM7/pTracer or ΔPDZ/pTracer construct were plated onto 24-well plates, 24-hours post-transfection. Untransfected cells were plated at 0.75×10^6 cells/well and transfected cells at 1×10^6 cells/well. The plates were coated with poly-D-lysine to strengthen cell adhesion and to minimize cell loss during washes. Cells were loaded by incubation with 5 μM fluo-3 AM and 0.02% pluronic in HBSS at 37° C. for 30 minutes. Following loading, cells were washed with an aglycaemic HBSS containing, in mM: 20 N-methyl-D-glucamine (NMDG), 121 NaCl, 5 KCl, 10 HEPES acid, 10 HEPES-Na salt, 3 NaHCO3, 1 Na-pyruvate, and 1.8 CaCl2, pH adjusted to 7.4 with HCl. Calcium uptake, as assessed by fluo-3 fluorescence, was measured in response to 0, 5, 10, 15, 20, or 25 mM sodium cyanide (NaCN; Mallinckrodt Baker Inc., Phillipsburg, N.J.) dissolved in aglycaemic HBSS. A 250 mM NaCN stock was prepared in water and stored at room temperature for up to 2 weeks. Measurements of fluo-3 fluorescence were taken over a 2 hour period at 10 minutes intervals at room temperature (22-25° C.). Calcium uptake assays were performed 48 hours post-transfection.
# Cell death, as assessed by PI uptake, was examined at the end of the 2 hour calcium uptake assay. Cells were stained with 10 μg/mL PI and PI fluorescence measured using the Fluoroskan microplate reader (λ excitation=590 nm, λ emission=630 nm) and accompanying Ascent software (Thermo Electron Corp.). To obtain a reading of maximal fluorescence (Fmax), 0.5% Triton X-100 was added to each well and allowed to incubate for 20 minutes. Cell death assays were performed 48 hours post-transfection.
# Data was entered into Excel (Microsoft, Seattle, Wash.) or SigmaPlot (SPSS Inc., Chicago, Ill.) for analysis. Pooled data are presented as the mean of at least 3 separate experiments±sem. Calcium uptake is expressed as a fraction of baseline uptake: ΔFt=(Ft−Fo)/Fo where Ft is the fluorescence at time t, and Fo is the fluorescence at baseline. Cell death is expressed as a percentage of total cell death: cell death (%)=Ft/Fmax×100 where Ft is the fluorescence at time t and Fmax is the maximal fluorescence obtained by permeabilization with Triton X-100. Concentration-response curves were fit by nonlinear regression with a 4 parameter logistic curve represented by the following equation: y=min+{(max−min)/[1+(x/EC50)n]} where y is the response at concentration x, min is the minimal response, max is the maximal response, EC50 is the concentration required for half-maximal response, and n is the Hill slope. Statistical analysis of data was carried out with a two-tailed Student's t test, or a one-way analysis of variance (ANOVA) followed by post hoc pairwise multiple comparisons testing using the Holm-Sidak method, where appropriate. […]
# TRPM7 ion channel = biological target: T2, TRPM7 ion channel (Mus musculus, UniProt Q923J1); test: Whole-cell patch clamp of TRPM7 currents in HEK293 cells; assay type: cell-based; details: value shown = concentration at which the compound significantly inhibits the ion channel
# T2 construct: expressed in transfected cells; host or cells: TRPM7-tet-on HEK293 cells
# T2 sequence (Q923J1 whole entry): as above
# Procedure: To further understand the structure function relationships between the TRPM7 inhibitors identified in the TRPM7-dependent HEK death assay, the activity of a subset of these inhibitors described herein were tested for their ability to inhibit TRPM7 currents in cell systems. Whole-cell patch clamp recordings were used essentially as described to test the TRPM7 inhibitors in HEK293 cells, H9c2 cardiomyocytes and cultured neurons. […] Those that provide >10% inhibition of TRPM7 channel activity in the HEK293 cell system were labeled with the concentration tested (generally 5 uM). Thus, the compounds in this table marked with such a value are able to block the activity gof the TRPM7 ion channel. FIGS. 2A-C provide an example of this for the TRPM7 inhibitor 399 (Structure 9). […] Numbers in brackets indicate the number of independent tests, and the bars represent the SEM.
# Whole-cell currents were recorded using an Axopatch 1D or MultiClamp 700B amplifier and were digitized at 10 kHz and low-pass filtered at 2 kHz, at room temperature. pClamp10 software was used for data acquisition and analysis. Patch electrodes were pulled from Borosilicate glass and fire polished to a resistance of 2-4 MΩ. All drugs were administrated directly to cell bodies under recording through the fast exchange perfusion system.
# The intracellular solution (ICS) contains (mM) 145 Cs-methanesulfonate, 8 NaCl, l MgCl2, 4.1 CaCl2, 10 EGTA, and 10 HEPES, 5 ATP, pH at 7.4, with 300-305 mOsm. The extracellular solution (ECS) contains (mM) 140 NaCl, 5 KCl, 2 CaCl2, 20 HEPES, and 10 glucose, pH at 7.4 and with 315-320 mOsm.
# Voltage stimuli lasting 250 ms were delivered at 5-s intervals with voltage ramps ranging from −100 to +100 mV. The current values at −80 mV and +80 mV on I-V curve represent the measures of inward and outward current respectively.
# (§1) Table X and FIGS. 7-51 show screening data for several additional compounds that are variants of M5, M6 or M21. The synthesis of compounds of Table X and FIGS. 7-51 is shown in Appendices A-C. The compounds shown in FIGS. 7-51 can be related to the appropriate row of Table X by the compound number shown in the figures and in the first column of Table X. The compounds in Table X other than M5, M6 and M21 themselves, are believed to be novel. The Table provides a number identifying the compound, its structurer, molecular weight and its cluster (i.e., whether the compound resembles M5, M6 or M21). The three columns relations to PI uptake describe the results of screening the compounds in the type of assay from Example 1. […] The last two columns show an effect on proliferation of Weri retinoblastoma or HeLa cervical cancer cells. Inhibition of proliferation is a measure of anti-neoplastic activity. […] If no data is shown, no test was performed.
# [2] = system: neurons, hepatocytes, cardiomyocytes, retina; test: Survival after anoxia in cells and tissues; assay type: cell-based; details: summary statement
# cancer cell lines = test: Cell proliferation studies, cancer cell lines in general; assay type: cell-based; details: summary statement
# Procedure: (§2) Cells were grown to 70% confluency, trypsinized, counted, and seeded in 96-well flat-bottom plates at a final concentration of 2.5×10^3-5.0×10^3 cells/well in growth media containing 5% FBS (Day 0). Other well sizes and cell densities were used successfully as well. Cells were allowed to incubate in growth media for 24 hours to allow for maximum adhesion. Treatment with the test agent began on Day 1 and continued for 72 hours either with or without retreatment. At the 72 hour time point, viable cell numbers are quantified by the CellTiter-Glo® cell viability assay as described above, or using standard MTT, SRB or BrDU assays. Experiments were repeated at least twice with the same concentrations to determine growth inhibitory activity. […] In an alternative format, this assay was used to screen potential TRPM7 inhibitory compounds at a fixed concentration, usually 5 or 10 uM. Alternatively, lower or higher concentrations were used. […] Thus, for the compounds in Table 1, all are potential anti-cancer agents. Some, like 399 and 509, are more general and may be effective against a wide range of cancers. Others, like 2785, are more specific and may be effective against a subset of cancers.
# (§3) Data Collection—For the cell proliferation studies, data from each experiment was collected and expressed as % Cell Growth using the following calculation: % Cell Growth=(ftest/fvehicle)×100 Where ftest is the luminescent signal of the tested sample, and fvehicle is the luminescence of the vehicle in which the drug is dissolved (or appropriate measure for the other viability/proliferation measures). Dose response graphs and IC50 values were generated using standard software using the following variable slope equation: […]
# TRPM7 [3] = biological target: TRPM7 (Homo sapiens, UniProt Q96QT4); details: Nadler et al., Jiang et al.; read-out: IC50 for inhibition of TRPM7; cited from earlier work
# Chain of TRPM7 (Homo sapiens, UniProt Q96QT4) (Q96QT4 whole entry, species assumed): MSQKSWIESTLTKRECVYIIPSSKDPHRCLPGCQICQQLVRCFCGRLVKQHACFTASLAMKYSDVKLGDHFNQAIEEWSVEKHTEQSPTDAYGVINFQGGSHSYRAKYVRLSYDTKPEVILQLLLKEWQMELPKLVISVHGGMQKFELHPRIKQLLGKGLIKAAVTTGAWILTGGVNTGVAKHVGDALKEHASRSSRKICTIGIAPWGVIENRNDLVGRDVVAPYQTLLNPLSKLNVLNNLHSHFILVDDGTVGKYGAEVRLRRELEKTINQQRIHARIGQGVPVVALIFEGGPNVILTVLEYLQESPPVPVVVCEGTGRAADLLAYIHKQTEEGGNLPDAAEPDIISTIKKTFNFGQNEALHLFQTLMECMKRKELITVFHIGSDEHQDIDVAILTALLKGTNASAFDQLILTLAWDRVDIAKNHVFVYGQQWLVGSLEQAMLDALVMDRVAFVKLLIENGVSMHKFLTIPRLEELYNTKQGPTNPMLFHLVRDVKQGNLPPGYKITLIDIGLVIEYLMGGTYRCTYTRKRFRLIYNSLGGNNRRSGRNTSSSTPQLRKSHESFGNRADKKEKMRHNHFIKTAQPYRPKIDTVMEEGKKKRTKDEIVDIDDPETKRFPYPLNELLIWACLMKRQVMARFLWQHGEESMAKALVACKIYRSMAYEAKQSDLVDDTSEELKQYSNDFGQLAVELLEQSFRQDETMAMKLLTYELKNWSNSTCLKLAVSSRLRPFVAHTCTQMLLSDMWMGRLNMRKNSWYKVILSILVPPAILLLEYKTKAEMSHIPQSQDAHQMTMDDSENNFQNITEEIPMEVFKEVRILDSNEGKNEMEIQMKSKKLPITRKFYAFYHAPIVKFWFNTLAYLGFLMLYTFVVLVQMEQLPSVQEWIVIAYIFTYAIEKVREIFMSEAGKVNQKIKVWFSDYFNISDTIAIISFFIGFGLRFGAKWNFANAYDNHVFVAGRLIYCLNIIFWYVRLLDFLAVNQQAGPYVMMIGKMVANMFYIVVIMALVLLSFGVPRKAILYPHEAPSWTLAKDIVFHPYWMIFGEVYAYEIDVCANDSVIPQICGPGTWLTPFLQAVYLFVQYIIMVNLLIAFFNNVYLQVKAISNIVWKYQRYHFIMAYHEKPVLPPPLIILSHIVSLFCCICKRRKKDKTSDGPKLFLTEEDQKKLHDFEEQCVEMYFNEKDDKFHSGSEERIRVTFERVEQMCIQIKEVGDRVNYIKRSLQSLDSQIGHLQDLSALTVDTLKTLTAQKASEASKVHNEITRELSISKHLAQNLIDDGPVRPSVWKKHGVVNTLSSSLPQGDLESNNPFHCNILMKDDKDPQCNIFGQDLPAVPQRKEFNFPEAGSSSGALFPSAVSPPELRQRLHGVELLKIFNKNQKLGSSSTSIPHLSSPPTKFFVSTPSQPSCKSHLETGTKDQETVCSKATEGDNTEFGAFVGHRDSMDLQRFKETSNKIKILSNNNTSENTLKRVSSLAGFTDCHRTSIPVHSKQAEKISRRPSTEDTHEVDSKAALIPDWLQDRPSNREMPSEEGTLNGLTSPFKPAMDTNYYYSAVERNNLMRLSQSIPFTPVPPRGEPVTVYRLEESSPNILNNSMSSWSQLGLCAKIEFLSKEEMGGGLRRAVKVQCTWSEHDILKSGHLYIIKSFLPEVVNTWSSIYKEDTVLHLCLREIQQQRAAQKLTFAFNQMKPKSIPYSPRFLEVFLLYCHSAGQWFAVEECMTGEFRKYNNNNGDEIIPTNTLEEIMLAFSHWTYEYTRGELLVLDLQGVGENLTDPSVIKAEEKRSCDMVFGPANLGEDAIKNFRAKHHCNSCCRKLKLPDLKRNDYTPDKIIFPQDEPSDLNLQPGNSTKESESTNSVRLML
# Weri cells = test: Cell proliferation assay, Weri retinoblastoma cells; assay type: cell-based
# Procedure: as §2, §3, §1
# [4] = Table X, the lower the number, the more potent in protecting against cell death
# [5] = Table X, the lower the number, the more potent
# [6] = Table Y, commercially available compounds
SMILES,Normalized ratio of PI uptake (5 μM) (TRPM7 [1]; [4]),Normalized ratio of PI uptake (10 μM) (TRPM7 [1]; [5]),IC50 (TRPM7 [1]; Table X) [µM],TRPM7 current (TRPM7 ion channel),further results
O=C(NC1CCCc2ccccc21)c1sc2ccccc2c1Cl (stereo not drawn) [Compound 97],0,0.084,1.24,5 μM (Those that provide >10% inhibition of TRPM7 channel activity in the HEK293 cell system were labeled with the concentration tested (generally 5 uM)),–
Cc1cccc2sc(C3=NCCc4c(F)cccc43)c(Cl)c12 [Compound 117],0.02,0.07,1.67,5 μM (Those that provide >10% inhibition of TRPM7 channel activity in the HEK293 cell system were labeled with the concentration tested (generally 5 uM)),–
COc1cc2c(cc1OC)C(c1sc3cc(OC)c(OC)cc3c1Cl)=NCC2 [Compound 120],0.079,0.066,2.55,5 μM (Those that provide >10% inhibition of TRPM7 channel activity in the HEK293 cell system were labeled with the concentration tested (generally 5 uM)),–
COc1cccc2c1CCNC2c1sc2ccccc2c1Cl (stereo not drawn) [Compound 121],0.053,0.036,1.4,5 μM (Those that provide >10% inhibition of TRPM7 channel activity in the HEK293 cell system were labeled with the concentration tested (generally 5 uM)),–
Fc1cccc2c1CCNC2c1sc2ccccc2c1Cl (stereo not drawn) [Compound 123],0.356,0.128,4.18,5 μM (Those that provide >10% inhibition of TRPM7 channel activity in the HEK293 cell system were labeled with the concentration tested (generally 5 uM)),–
Cc1c(Cc2ccc(Cl)c(Cl)c2)c(=O)oc2cc(O)cc(O)c12 [Compound 131],0.29,0.03,3.42,5 μM (Those that provide >10% inhibition of TRPM7 channel activity in the HEK293 cell system were labeled with the concentration tested (generally 5 uM)),–
Cc1ccc2c(c1)CCCN2C(=O)c1sc2ccccc2c1Cl [Compound M5],–,–,–,–,"survival after anoxia [2]: effective in increasing survival after anoxia in neurons, hepatocytes, cardiomyoctes, and retina; inhibition of proliferation of cancer cell lines (cancer cell lines): effective in inhibiting proliferation of various cancer cell lines"
COc1cc2c(cc1OC)C(c1sc3ccccc3c1Cl)=NCC2 [Compound M6],–,–,–,–,survival after anoxia [2]: effective in increasing survival after anoxia in neurons and cardiomyocytes; inhibition of proliferation of cancer cell lines (cancer cell lines): effective in inhibiting proliferation of various cancer cell lines
"[Mg+2] [Mg^2+, magnesium]",–,–,–,–,pIC50 (TRPM7 [3]): ~3.22
"COc1ccccc1C(C)N(C)C(=O)c1cc2ccccc2s1 (stereo not drawn) [T6681713 #6, reference compound]",–,–,–,–,Normalized ratio of PI uptake (5 μM) (TRPM7 [1]; [6]): 0.328; Normalized ratio of PI uptake (10 μM) (TRPM7 [1]; [6]): 0.059; IC50 (TRPM7 [1]; [6]): 5.48 µM; inhibition at 5 µM (Weri cells): 9%; inhibition at 10 µM (Weri cells): 33%
"COc1ccc2cc(C(=O)N(C)Cc3ccccc3N3CCCC3)[nH]c2c1 [T6899266 #9, reference compound]",–,–,–,–,Normalized ratio of PI uptake (5 μM) (TRPM7 [1]; [6]): 0.029; Normalized ratio of PI uptake (10 μM) (TRPM7 [1]; [6]): 0; IC50 (TRPM7 [1]; [6]): 2.32 µM; inhibition at 5 µM (Weri cells): 18%; inhibition at 10 µM (Weri cells): 42%
